Laboratory results published in patent US20150118726A1, “Processes Using Antibiotic Alternatives In Bioethanol Production” (Buckman Laboratories International, Inc., priority 2010, published 2015).

How the values were obtained:
[1] = tested on: L. plantarum; assay: Corn mash ethanol fermentation infected with L. plantarum, treated with nonoxidizing biocide; type: cell-based, Lactobacillus plantarum; conditions: based on experimental results
Description: (§1) Experiments were conducted to evaluate the effectiveness of a nonoxidizing biocide as an antimicrobial agent for control of Lactobacillus infections in ethanol fermentation. The nonoxidizing biocide was BRONAM® 20 (20% 2,2-dibromo-3-nitrilopropionamide). The lactobacilli was L. plantarum. The yeast was Saccharomyces cereviseae. Corn mashes containing approximately 30% (w/w) dry solids were used.
For slurry preparation, the moisture of ground corn was determined gravimetrically using a moisture balance by measuring the mass loss that occurred upon drying. The amount of corn, deionized (DI) water, and enzyme needed to prepare 160 g of corn slurry at a total dry solids concentration of 30% (w/w) for each replicate was determined. […]
For fermentation, once the mash was cooled, the entire contents (approximately 160 g) of each Labomat beaker were transferred to a sterile 250-ml Erlenmeyer flask. The masses of the mash and flasks were recorded, and the mass of mash transferred to the fermentation flasks was calculated. […]
The L. plantarum culture was prepared for inoculation by growing throughout the day in 100-ml of MRS broth. […] The initial concentration of the bacteria was determined by plating serial dilutions of the culture on MRS agar containing cycloheximide and incubating at 32° C. for 2 days before counting colonies. […]

[2] = tested on: Saccharomyces cereviseae; assay: Corn mash ethanol fermentation: effect of biocide on yeast / fermentation progress; type: cell-based, Saccharomyces cerevisiae
Description: as §1
A 0.2-g/ml suspension of yeast (Saccharomyces cerevisiae; Ethanol Red; Fermentis, Marcq-en-Baroeul, France) was prepared in a sterile 250-ml flask. This suspension was incubated and mixed for 20 minutes at 40° C. before inoculation into the fermentation flasks. Each fermentation flask was inoculated with 160 μl of the yeast suspension to attain an initial concentration of 10^7 yeast cells/ml. After the initial 1-hr incubation with bacteria, the flasks were inoculated with yeast and dosed with BRONAM® 20. […]
The mass of each flask was recorded after all additions were made, and the sanitized fermentation traps were reinserted into each flask. The mass of each flask with the trap in place was also recorded. […] The mass of each flask with the traps in place were measured periodically throughout fermentation to estimate the rate of fermentation (the mass of the fermentation flasks decreases when carbon dioxide is lost by bubbling out of the fermentation traps). […]

[3] = tested on: Lactobacillus fermentans; assay: MRS broth test of biocide combinations (Kull synergism method); type: cell-based; conditions: 25% MRS broth, 37° C., 24 hours
Description: Lactobacilli MRS broth (25% strength) was prepared and dispensed in 10 ml amounts into test tubes and autoclaved for 20 minutes at 121° C. The biocides were added to the test tubes in the desired concentrations, and then 100 microliters of an overnight broth of Lactobacillus fermentans were added to the respective test tubes and incubated at 37° C. for 24 hours.
QA/Qa+QB/Qb is less than 1.
Qa=Concentration of Compound A in parts per million, acting alone, which produced an endpoint; Qb=Concentration of Compound B in parts per million, acting alone, which produced an endpoint; QA=Concentration of Compound A in parts per million, in the mixture, which produced an endpoint; QB=Concentration of Compound B in parts per million, in the mixture, which produced an endpoint.
When the sum of QA/Qa and QB/Qb is greater than one, antagonism is indicated and when the sum is equal to one, additivity is indicated. When the sum of this value is less than one, synergism exists.

[4] = Persistence of DBNPA under fermentation tank conditions; type: physicochemical; conditions: under the conditions in the fermentation tank, based on laboratory work
Description: Under the conditions in the fermentation tank, DBNPA is expected to last intact only about 1-2 hours, based on laboratory work. The stillage, i.e., fermented unevaporated product (post “beer tank”) of distillation, is centrifuged, and dried (e.g., about 1 hour at about 250-300° F.), then the mixture is pumped over to a final tank where it is called the DDGS. DDGS is about ⅓ mass of the starting raw material for corn. The chemistry of DBNPA is not expected to endure and survive the centrifugation and heat of drying prior to entering distillers dried grains with solubles (DDGS) stage. In the corn-to-ethanol process, for example, DBNPA is expected to degrade to carbon dioxide and water vapor, and, as such, would have low environmental impact. […] The application of DBNPA avoids the use of antibiotics, which can remain stable throughout the process. The use of DBNPA makes the use of antibiotics unnecessary. The use of DBNPA is more economical since the cost of antibiotics (as the only treatment widely employed) can be relatively high and costly to the fermentation. […]

Compound: N#CC(Br)(Br)C(N)=O [2,2-dibromo-3-nitrilopropionamide]
- effect on bacteria (lactobacilli) [1]: kills the bacteria
- effect on yeast involved in fermentation [2]: does not kill the yeast
- Qb, concentration of Compound B acting alone which produced an endpoint ([3]; Example 3): 100 ppm
- time DBNPA lasts intact [4]: 1 to 2 h

Compound: O=[N+]([O-])C(Br)(CO)CO [2-bromo-2-nitropropane-1,3-diol]
- Qb, concentration of Compound B acting alone which produced an endpoint ([3]; Example 2): 50 ppm

Compound: Nisin
- Qa, concentration of Compound A acting alone which produced an endpoint ([3]; Example 2): 1.0 ppm
- Qa, concentration of Compound A acting alone which produced an endpoint ([3]; Example 3): 1.0 ppm
